According to publication PMC6277767, “Broad and Region-Specific Impacts of the Synthetic Cannabinoid CP 55,940 in Adolescent and Adult Female Mouse Brains” (Frontiers in Molecular Neuroscience, 2018):

Test system: CD1 female mouse brain lipidome
Assay: Brain-region lipid levels (HPLC/MS/MS lipidomics) 2 h after single i.p. 3 mg/kg CP 55,940 vs vehicle
Assay type: in vivo
Protocol: The Bloomington Institutional Animal Care and Use Committee of Indiana University reviewed and approved the animal procedures. Female mice from the CD1 strain were utilized to match our study examining THC’s effects on the brain lipidome ([Leishman et al., 2018]). Mice were given a single i.p. injection of either 3 mg/kg CP or 1:1:18 cremophor:ethanol:saline vehicle (please refer to the section “3 mg/kg CP Is Relevant for Synthetic Cannabinoid Abuse and Has Stronger Effects on the Female Mouse Brain Lipidome During Adolescence” for a justification of dose and use of female mice). Three different age groups were given injections: PND 35 and PND 50 adolescents, and adult mice (PND 113). At least eight mice in each age group received CP and at least eight received vehicle. Matching the THC study time course ([Leishman et al., 2018]), mice were sacrificed via rapid decapitation 2 h after injection. Brains were immediately removed and flash-frozen in liquid nitrogen, and then stored at -80°C until dissections were performed. Brains were dissected on an ice-cold dissection plate into the following regions: STR, HIPP, CER, THAL, CTX, HYP, MID, and STEM. These abbreviations for these brain areas will be used exclusively when discussing the results generated by these specific dissections. Each dissected area was immediately placed in liquid nitrogen and then stored at -80°C until used for lipid extraction.
Tissue extracts were performed as previously described ([Bradshaw et al., 2006]; [Stuart et al., 2013]; [Raboune et al., 2014]; [Leishman et al., 2016a],[b], [2017], [2018]). First, samples were shock frozen in liquid nitrogen, weighed, and transferred to a centrifuge tube. The mass of the largest sample was multiplied by 50 to determine how many milliliters of HPLC-grade methanol (Fisher, Fair Lawn, NJ, United States) to add. Then, samples were spiked with 500 pmol deuterium-labeled NAGly (d8NAGly; Cayman Chemical, Ann Arbor, MI, United States). Samples were placed on ice in darkness for 2 h then individually homogenized and centrifuged at 19,000 × g for 20 min at 20°C. Supernatants were diluted with HPLC water (purified in house) to make a solution of 75% water, 25% supernatant. Lipids were partially purified on C18 solid phase extraction columns (Agilent, Palo Alto, CA, United States). A series of four elutions with 1.5 mL of 60%, 75%, 85%, and 100% methanol were collected ([Stuart et al., 2013]; [Leishman et al., 2016a],[b], [2018]).
As previously described ([Bradshaw et al., 2006]; [Tan et al., 2006]; [Smoum et al., 2010]; [Stuart et al., 2013]; [Tortoriello et al., 2013]; [Raboune et al., 2014]; [Leishman et al., 2016a],[b], [2017], [2018]), samples were analyzed using an Applied Biosystems API 3000 triple quadrupole mass spectrometer with electrospray ionization (Foster City, CA, United States). Using an Agilent XDB-C18 reversed phase analytical column and optimized mobile phase gradients, 20 μL from each elution were chromatographed. Two Shimadzu 10ADvp pumps (Columbia, MD, United States) provided the pressure for gradient elution. Mobile phase A: 20% methanol, 80% water (v/v) and 1 mM ammonium acetate (Sigma, St. Louis, MO, United States). Mobile phase B: 100% methanol, 1 mM ammonium acetate. Every method run began with 0% mobile phase B, reached 100% mobile phase B flowing at 0.2 mL/min, and gradually returned to 0% mobile phase B.
This screening library will be referred to as the lipidome when discussing data from this study. HPLC/MS/MS data were analyzed using Analyst software (Applied Biosystems) ([Bradshaw et al., 2006]; [Tan et al., 2006]; [Stuart et al., 2013]; [Tortoriello et al., 2013]; [Raboune et al., 2014]; [Leishman et al., 2016a],[b], [2017], [2018]). Chromatograms (Supplementary Figure 3) were generated by determining the retention time of analytes from the analytical column with a [M-1] or [M+1] parent peak and a fragmentation peak corresponding to the programmed values. […]

[1] = adult brainstem, 3mg/kg CP 55,940
[2] = adult cortex, 3 mg/kg CP 55,940, p .004
[3] = adult cortex, 3 mg/kg CP 55,940, p .008
[4] = adult cortex, 3 mg/kg CP 55,940, p .028
[5] = adult cortex, 3 mg/kg CP 55,940, p .055
[6] = adult cortex, 3 mg/kg CP 55,940, p .057
[7] = adult cortex, 3 mg/kg CP 55,940, p .077
[8] = adult cortex, 3 mg/kg CP 55,940, p .086
[9] = adult cortex, 3 mg/kg CP 55,940, p .090
[10] = adult female mice, brainstem, 3mg/kg CP 55,940

## CCCCCCC(C)(C)c1ccc([C@@H]2C[C@H](O)CC[C@H]2CCCO)c(O)c1 [CP 55,940]
[1]
  N-docosahexaenoyl alanine level, Mean: 3.28E-13
  N-docosahexaenoyl ethanolamine level, Mean: 2.85E-11
  N-docosahexaenoyl glycine level, Mean: 5.52E-13
  N-docosahexaenoyl phenylalanine level, Mean: 3.64E-14
  N-linoleoyl GABA level, Mean: 6.22E-12
  N-linoleoyl alanine level, Mean: 2E-13
  N-linoleoyl ethanolamine level, Mean: 8.37E-12
  N-linoleoyl glycine level, Mean: 1.41E-13
  N-linoleoyl methionine level, Mean: BDL
  N-oleoyl GABA level, Mean: 1.65E-11
  N-oleoyl alanine level, Mean: 3.26E-12
  N-oleoyl dopamine level, Mean: BDL
  N-oleoyl ethanolamine level, Mean: 2.44E-10
  N-oleoyl ethanolamine, Direction (relative to Veh): ↓
  N-oleoyl ethanolamine, Magnitude (x Veh level): 0.76 x Veh level
  N-oleoyl glycine level, Mean: 2.1E-12
  N-oleoyl leucine level, Mean: 2E-12
  N-oleoyl methionine level, Mean: 4.11E-13
  N-oleoyl phenylalanine level, Mean: 4.28E-13
  N-palmitoyl GABA level, Mean: 1.95E-11
  N-palmitoyl alanine level, Mean: 3.16E-12
  N-palmitoyl ethanolamine level, Mean: 8.74E-11
  N-palmitoyl glycine level, Mean: 2.79E-12
  N-palmitoyl leucine level, Mean: 3.05E-12
  N-palmitoyl leucine, Direction (relative to Veh): ↑
  N-palmitoyl leucine, Magnitude (x Veh level): 1.30 x Veh level
  N-palmitoyl methionine level, Mean: 5.07E-12
  N-palmitoyl phenylalanine level, Mean: 2.38E-13
  N-palmitoyl valine Direction (relative to Veh): ↑
  N-palmitoyl valine Magnitude (x Veh level): 1.43 x Veh level
  N-stearoyl GABA level, Mean: 1.37E-11
  N-stearoyl alanine level, Mean: 5.4E-12
  N-stearoyl ethanolamine level, Mean: 3.01E-11
  N-stearoyl glycine level, Mean: 4.95E-12
  N-stearoyl leucine level, Mean: 1.96E-12
  N-stearoyl methionine level, Mean: 4.69E-13
  N-stearoyl phenylalanine level, Mean: 1.53E-13
  Oleic acid, Direction (relative to Veh): ↓
  Oleic acid, Magnitude (x Veh level): 0.80 x Veh level
  PGE2 Direction (relative to Veh): ↓
  PGE2 Magnitude (x Veh level): 0.87 x Veh level
Adult cortex, 3mg/kg CP 55,940
  2-arachidonoyl glycerol level, Mean: 3.28E-09
  2-linoleoyl glycerol level, Mean: 1.48E-10
  2-oleoyl glycerol level, Mean: 1.56E-09
  2-palmitoyl glycerol level, Mean: 8.13E-11
  6-ketoPGF1α level, Mean: 1.5E-11
  11-OH-THC level, Mean: BDL
  11-nor-9-carboxyTHC level, Mean: BDL
  Arachidonic acid level, Mean: 9.03E-10
  Cannabidiol level, Mean: BDL
  Linoleic acid level, Mean: 5.34E-10
  N- stearoyl valine level, Mean: 2.51E-14
  N-arachidonoyl proline level, Mean: BDL
  N-arachidonoyl taurine level, Mean: 8.95E-11
  N-arachidonoyl tryptophan level, Mean: BDL
  N-arachidonoyl tyrosine level, Mean: 6.06E-13
  N-docosahexaenoyl proline level, Mean: BDL
  N-docosahexaenoyl tryptophan level, Mean: BDL
  N-docosahexaenoyl tyrosine level, Mean: 3.81E-13
  N-linoleoyl proline level, Mean: BDL
  N-linoleoyl serine level, Mean: 1.53E-11
  N-linoleoyl tryptophan level, Mean: BDL
  N-linoleoyl tyrosine level, Mean: BDL
  N-nervonoyl valine level, Mean: BDL
  N-oleoyl proline level, Mean: BDL
  N-oleoyl serine level, Mean: 8.25E-11
  N-oleoyl tryptophan level, Mean: BDL
  N-oleoyl tyrosine level, Mean: 3.46E-13
  N-oleoyl valine level, Mean: 1.3E-14
  N-palmitoyl proline level, Mean: BDL
  N-palmitoyl serine level, Mean: 6.45E-12
  N-palmitoyl tryptophan level, Mean: BDL
  N-palmitoyl tyrosine level, Mean: 7.95E-13
  N-palmitoyl valine level, Mean: 1.13E-13
  N-stearoyl proline level, Mean: BDL
  N-stearoyl serine level, Mean: 9.84E-12
  N-stearoyl tryptophan level, Mean: BDL
  N-stearoyl tyrosine level, Mean: 1.21E-13
  Oleic acid level, Mean: 4.6E-10
  PGE2 level, Mean: 3.08E-10
  PhosphoLEA level, Mean: 1.8E-12
  THC level, Mean: BDL
[2]
  6-ketoPGF1α Direction (relative to Veh): ↓
  6-ketoPGF1α Magnitude (x Veh level): 0.68
[3]
  N-palmitoyl valine Direction (relative to Veh): ↑
  N-palmitoyl valine Magnitude (x Veh level): 1.49
[4]
  PGF2α Direction (relative to Veh): ↓
  PGF2α Magnitude (x Veh level): 0.89
[5]
  N-linoleoyl GABA Direction (relative to Veh): ↓
  N-linoleoyl GABA Magnitude (x Veh level): 0.86
[6]
  N-stearoyl phenylalanine, Direction (relative to Veh): ↓
  N-stearoyl phenylalanine, Magnitude (x Veh level): 0.66
[7]
  Arachidonic acid, Direction (relative to Veh): ↓
  Arachidonic acid, Magnitude (x Veh level): 0.86
[8]
  N-arachidonoyl taurine Direction (relative to Veh): ↓
  N-arachidonoyl taurine Magnitude (x Veh level): 0.93
[9]
  2-linoleoyl glycerol Direction (relative to Veh): ↓
  2-linoleoyl glycerol Magnitude (x Veh level): 0.76
[10]
  2-arachidonoyl glycerol level, Mean: 4.32E-09
  2-linoleoyl glycerol level, Mean: 2.54E-10
  2-oleoyl glycerol level, Mean: 3.17E-09
  2-palmitoyl glycerol level, Mean: 3.83E-11
